According to US20110098352A1, “N,N-DISUBSTITUTED AMINOALKYLBIPHENYL ANTAGONISTS OF PROSTAGLANDIN D2 RECEPTORS” (AMIRA PHARMACEUTICALS, INC., priority 2008, published 2011):

How the values were obtained:
human DP2 receptor = molecular target: T1, human DP2 receptor (Homo sapiens, UniProt Q9Y5Y4); assay: DP2/CRTH2 radioligand binding assay using [3H]PGD2; conditions: [3H]PGD2 binding, membranes of HEK293 cells expressing recombinant human DP2; read-out: hDP2
T1 construct: expressed in transfected cells
T1 sequence (Q9Y5Y4 1-395): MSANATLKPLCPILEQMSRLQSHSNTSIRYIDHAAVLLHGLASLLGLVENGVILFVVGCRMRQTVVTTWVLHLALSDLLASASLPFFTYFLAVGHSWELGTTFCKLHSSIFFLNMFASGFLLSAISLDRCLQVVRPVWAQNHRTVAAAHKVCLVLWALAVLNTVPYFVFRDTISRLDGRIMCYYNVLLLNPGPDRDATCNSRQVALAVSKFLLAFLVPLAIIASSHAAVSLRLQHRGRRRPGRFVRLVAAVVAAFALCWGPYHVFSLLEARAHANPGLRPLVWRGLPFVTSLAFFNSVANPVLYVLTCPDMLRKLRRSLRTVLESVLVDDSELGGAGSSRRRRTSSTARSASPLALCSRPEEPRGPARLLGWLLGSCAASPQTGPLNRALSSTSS
Protocol: The ability of a compound to bind to the human DP2 receptor is assessed via a radioligand binding assay using [^3H]PGD2. HEK293 cells stably expressing recombinant human DP2 are resuspended in 10 mM Hepes, 7.4 containing 1 mM DTT, lysed and centrifuged at 75,000×g to pellet the membranes. The membranes are resuspended in 10 mM Hepes, 7.4 containing 1 mM DTT and 10% glycerol to approximately 5 mg protein/ml. Membranes (2-10 μg protein/well) are incubated in 96-well plates with 1 nM [^3H]PGD2 and test compound in Assay Buffer (50 mM Hepes, 10 mM MnCl2, 1 mM EDTA, plus or minus 0.2% human serum albumin, pH 7.4) for 60 minutes at room temperature. The reactions are terminated by rapid filtration through Whatman GF/C glass fibre filter plates. The filter plates were pre-soaked in 0.33% polythylenimine for 30 minutes at room temperature then washed in Wash Buffer (50 mM Hepes, 0.5 M NaCl pH 7.4) prior to harvesting. After harvesting, the filter plates are washed 3 times with 1 ml cold Wash Buffer then dried. Scintillant is then added to the plates and the radioactivity retained on the filters is determined on a Packard TopCount (Perkin Elmer). Specific binding is determined as total radioactive binding minus non-specific binding in the presence of 10 μM PGD2. IC50s were determined using GraphPad prism analysis of drug titration curves.

human DP1 receptor = molecular target: T2, human DP1 receptor (Homo sapiens, UniProt Q13258); assay: DP1 radioligand membrane binding assay using [3H]BWA868C; conditions: [3H]BWA868C binding, human platelet membranes; read-out: hDP1
T2 construct: tissue Biological Specialty Corporation; host or cells: human platelets, membranes
T2 sequence (Q13258 1-359): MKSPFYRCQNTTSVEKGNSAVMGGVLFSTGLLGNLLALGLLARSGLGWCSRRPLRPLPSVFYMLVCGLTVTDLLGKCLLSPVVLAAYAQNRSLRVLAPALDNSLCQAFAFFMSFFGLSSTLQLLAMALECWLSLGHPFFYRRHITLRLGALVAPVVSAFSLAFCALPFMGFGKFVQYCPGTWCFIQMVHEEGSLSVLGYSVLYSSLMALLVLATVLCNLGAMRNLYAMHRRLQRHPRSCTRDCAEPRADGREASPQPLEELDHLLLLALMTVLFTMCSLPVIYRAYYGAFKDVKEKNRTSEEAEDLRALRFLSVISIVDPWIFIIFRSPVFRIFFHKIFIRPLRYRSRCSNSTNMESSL
Protocol: The ability of a compound to bind to the human DP1 receptor was evaluated via a radioligand membrane binding assay using the DP1 selective synthetic ligand [^3H]BWA868C. Packed human platelets (Biological Specialty Corporation), were resuspended in 6 volumes of Hepes/HBSS buffer (10 mM Hepes, 1 mM DTT in Hanks Balanced Salt Solution (HBSS)), lysed and centrifuged at 75,000×g to pellet the membranes. Membranes were resuspended in Hepes/HBSS buffer to approximately 12 mg protein/ml. Membranes (20 μg protein/well) are incubated in 96-well plates with 2 nM [^3H]BWA868C and test compound in Assay Buffer (50 mM Hepes, 10 mM MnCl2, 1 mM EDTA, plus or minus 0.2% human serum albumin, pH 7.4) for 60 minutes at room temperature. The reactions are terminated by rapid filtration through Whatman GF/C glass fibre filter plates. The filter plates were pre-soaked in […] polethylenimine for 30 minutes at room temperature then washed in Wash Buffer (50 mM Hepes, 0.5 M NaCl pH 7.4) prior to harvesting. After harvesting, the filter plates are washed 3 times with 1 ml cold Wash Buffer then dried. Scintillant is then added to the plates and the radioactivity retained on the filters is determined on a Packard TopCount (Perkin Elmer). Specific binding is determined as total radioactive binding minus non-specific binding in the presence of 10 μM BWA868C. IC50s were determined using GraphPad prism analysis of drug titration curves.

[1] = molecular target: T3, recombinant human CRTH2 receptor (Homo sapiens, UniProt Q9Y5Y4); assay: GTPγS binding assay; format: biochemical; conditions: +HSA; CHO cell membranes, 80 nM PGD2; read-out: hDP2 GTPγS μM (+HSA)
T3 construct: expressed in transfected cells
T3 sequence (Q9Y5Y4 1-395): T1 sequence (Q9Y5Y4 1-395)
Protocol: The ability of a compound to inhibit binding of GTP to DP2 is assessed via a membrane GTPγS assay. CHO cells stably expressing the recombinant human CRTH2 receptor are resuspended in 10 mM Hepes, 7.4 containing 1 mM DTT, lysed and centrifuged at 75,000×g to pellet the membranes. The membranes are resuspended in 10 mM Hepes, 7.4 containing 1 mM DTT and 10% glycerol. […] The reactions are terminated by rapid filtration through Whatman GF/B glass fibre filter plates. The filter plates are washed 3 times with 1 ml cold Assay Buffer and dried. Scintillant is then added to the plates and the radioactivity retained on the filters is determined on a Packard TopCount (Perkin Elmer). Specific binding is determined as total radioactive binding minus non-specific binding in the absence of the ligand (80 nM PGD2). IC50s were determined using Graphpad prism analysis of drug titration curves.

SMILES	IC50 (human DP2 receptor)	IC50 (human DP1 receptor)	IC50 [1]
CCN(Cc1cc(C(F)(F)F)ccc1-c1cc(CC(=O)O)ccc1OC)C(=O)COc1ccccc1 [Compound 1-48, (2′-{[Ethyl-(2-phenoxy-acetyl)-amino]-methyl}-6-methoxy-4′-trifluoromethyl-biphenyl-3-yl)-acetic acid]	< 300 nM	> 1000 nM	< 0.3 µM
CCN(Cc1cc(C(F)(F)F)ccc1-c1cc(CC(=O)O)ccc1OC)C(=O)OCc1cccc(Cl)c1 [Compound 1-43, (2′-{[(3-Chloro-benzyloxycarbonyl)-ethyl-amino]-methyl}-6-methoxy-4′-trifluoromethyl-biphenyl-3-yl)-acetic acid]	< 300 nM	> 1000 nM	< 0.3 µM
COc1ccc(CC(=O)O)cc1-c1ccc(C(F)(F)F)cc1CN(CC(F)(F)F)C(C)=O [Compound 1-4, (2′-{[Acetyl-(2,2,2-trifluoro-ethyl)-amino]-methyl}-6-methoxy-4′-trifluoromethyl-biphenyl-3-yl)-acetic acid]	< 300 nM	> 1000 nM	< 0.3 µM
CC(=O)N(Cc1cc(C(F)(F)F)ccc1-c1cc(CC(=O)O)ccc1F)CC(F)(F)F [Compound 1-11, (2′-{[Acetyl-(2,2,2-trifluoro-ethyl)-amino]-methyl}-6-fluoro-4′-trifluoromethyl-biphenyl-3-yl)-acetic acid]	< 300 nM	> 1000 nM	< 0.3 µM
CCN(Cc1cc(C(F)(F)F)ccc1-c1cc(CC(=O)O)ccc1OC)C(=O)OCc1ccc(Cl)cc1 [Compound 1-42, (2′-{[(4-Chloro-benzyloxycarbonyl)-ethyl-amino]-methyl}-6-methoxy-4′-trifluoromethyl-biphenyl-3-yl)-acetic acid]	< 300 nM	> 1000 nM	< 0.3 µM
CCN(Cc1cc(C(F)(F)F)ccc1-c1cc(CC(=O)O)ccc1OC)C(=O)COc1ccc(Cl)cc1 [Compound 1-93, [2′-({[2-(4-Chloro-phenoxy)-acetyl]-ethyl-amino}-methyl)-6-methoxy-4′-trifluoromethyl-biphenyl-3-yl]-acetic acid]	< 300 nM	> 1000 nM	< 0.3 µM
CCN(Cc1cc(C(F)(F)F)ccc1-c1cc(CC(=O)O)ccc1OC)C(=O)NCc1cc(Cl)cc(Cl)c1 [Compound 1-165, {2′-[3-(3,5-Dichloro-benzyl)-1-ethyl-ureidomethyl]-6-methoxy-4′-trifluoromethyl-biphenyl-3-yl}-acetic acid]	< 300 nM	> 1000 nM	–
CCN(Cc1cc(NS(C)(=O)=O)ccc1-c1cc(CC(=O)O)ccc1OC)C(=O)OCc1ccccc1 [Compound 1-155, {2′-[(Benzyloxycarbonyl-ethyl-amino)-methyl]-4′-methanesulfonylamino-6-methoxy-biphenyl-3-yl}-acetic acid]	< 300 nM	> 1000 nM	–
CCN(Cc1cc(C(F)(F)F)ccc1-c1cc(CC(=O)O)ccc1OC)C(=O)N[C@@H](C)c1ccc(Cl)cc1 [Compound 1-180, (2′-{3-[(S)-1-(4-Chloro-phenyl)-ethyl]-1-ethyl-ureidomethyl}-6-methoxy-4′-trifluoromethyl-biphenyl-3-yl)-acetic acid]	< 300 nM	> 1000 nM	–
CCN(Cc1cc(C(F)(F)F)ccc1-c1cc(CC(=O)O)ccc1OC)C(=O)C(C)C [Compound 1-246, {2′-[(Ethyl-isobutyryl-amino)-methyl]-6-methoxy-4′-trifluoromethyl-biphenyl-3-yl}-acetic acid]	< 300 nM	–	< 0.3 µM
CCNC(=O)N(CC)Cc1cc(C(F)(F)F)ccc1-c1cc(CC(=O)O)ccc1OC [Compound 1-181, [2′-(1,3-Diethyl-ureidomethyl)-6-methoxy-4′-trifluoromethyl-biphenyl-3-yl]-acetic acid]	< 300 nM	> 1000 nM	–
O=C(O)Cc1ccc(F)c(-c2ccc(C(F)(F)F)cc2CN(CC(F)(F)F)C(=O)OCc2ccccc2)c1 [Compound 1-49, (2′-{[Benzyloxycarbonyl-(2,2,2-trifluoro-ethyl)-amino]-methyl)-6-fluoro-4′-trifluoromethyl-biphenyl-3-yl)-acetic acid]	> 1000 nM	> 1000 nM	–
CCN(Cc1cc(C(F)(F)F)ccc1-c1cc(CC(=O)O)ccc1OC)C(=O)NCc1cc(F)cc(F)c1 [Compound 1-178, {2′-[3-(3,5-Difluoro-benzyl)-1-ethyl-ureidomethyl]-6-methoxy-4′-trifluoromethyl-biphenyl-3-yl}-acetic acid]	< 300 nM	> 1000 nM	–
CCN(Cc1cc(F)ccc1-c1cc(CC(=O)O)ccc1OC)C(=O)NCc1ccccc1 [Compound 1-187, [2′-(3-Benzyl-1-ethyl-ureidomethyl)-4′-fluoro-6-methoxy-biphenyl-3-yl]-acetic acid]	< 300 nM	> 1000 nM	–
CCN(Cc1cc(F)ccc1-c1cc(CC(=O)O)ccc1OC)C(C)=O [Compound 1-184, {2′-[(Acetyl-ethyl-amino)-methyl]-4′-fluoro-6-methoxy-biphenyl-3-yl}-acetic acid]	< 300 nM	> 1000 nM	–
CCN(Cc1cc(NC(C)=O)ccc1-c1cc(CC(=O)O)ccc1OC)C(=O)OCc1ccccc1 [Compound 1-153, {4′-Acetylamino-2′-[(benzyloxycarbonyl-ethyl-amino)-methyl]-6-methoxy-biphenyl-3-yl}-acetic acid]	< 300 nM	> 1000 nM	–
CCN(Cc1cc(C(F)(F)F)ccc1-c1cc(CC(=O)O)ccc1O)C(=O)NCc1ccccc1 [Compound 1-220, [2′-(3-Benzyl-1-ethyl-ureidomethyl)-6-hydroxy-4′-trifluoromethyl-biphenyl-3-yl]-acetic acid]	< 300 nM	–	< 0.3 µM
CCN(Cc1cc(C(F)(F)F)ccc1-c1cc(CC(=O)O)ccc1OC)C(=O)N[C@H](C)c1ccc(Cl)cc1 [Compound 1-179, (2′-{3-[(R)-1-(4-Chloro-phenyl)-ethyl]-1-ethyl-ureidomethyl}-6-methoxy-4′-trifluoromethyl-biphenyl-3-yl)-acetic acid]	< 300 nM	> 1000 nM	–
CCN(Cc1cc(C(F)(F)F)ccc1-c1cccc(CC(=O)O)c1)C(=O)OCc1ccccc1 [Compound 1-143, {2′-[(Benzyloxycarbonyl-ethyl-amino)-methyl]-4′-trifluoromethyl-biphenyl-3-yl}-acetic acid]	< 300 nM	300 to 1000 nM	–
